{
  "source": "paper PMC6272942",
  "about": "“Lead Discovery of Type II BRAF V600E Inhibitors Targeting the Structurally Validated DFG-Out Conformation Based upon Selected Fragments” (Molecules, 2016)",
  "target": "BRAF V600E (Homo sapiens, UniProt P15056, V600E)",
  "sequence (P15056 whole entry V600E)": "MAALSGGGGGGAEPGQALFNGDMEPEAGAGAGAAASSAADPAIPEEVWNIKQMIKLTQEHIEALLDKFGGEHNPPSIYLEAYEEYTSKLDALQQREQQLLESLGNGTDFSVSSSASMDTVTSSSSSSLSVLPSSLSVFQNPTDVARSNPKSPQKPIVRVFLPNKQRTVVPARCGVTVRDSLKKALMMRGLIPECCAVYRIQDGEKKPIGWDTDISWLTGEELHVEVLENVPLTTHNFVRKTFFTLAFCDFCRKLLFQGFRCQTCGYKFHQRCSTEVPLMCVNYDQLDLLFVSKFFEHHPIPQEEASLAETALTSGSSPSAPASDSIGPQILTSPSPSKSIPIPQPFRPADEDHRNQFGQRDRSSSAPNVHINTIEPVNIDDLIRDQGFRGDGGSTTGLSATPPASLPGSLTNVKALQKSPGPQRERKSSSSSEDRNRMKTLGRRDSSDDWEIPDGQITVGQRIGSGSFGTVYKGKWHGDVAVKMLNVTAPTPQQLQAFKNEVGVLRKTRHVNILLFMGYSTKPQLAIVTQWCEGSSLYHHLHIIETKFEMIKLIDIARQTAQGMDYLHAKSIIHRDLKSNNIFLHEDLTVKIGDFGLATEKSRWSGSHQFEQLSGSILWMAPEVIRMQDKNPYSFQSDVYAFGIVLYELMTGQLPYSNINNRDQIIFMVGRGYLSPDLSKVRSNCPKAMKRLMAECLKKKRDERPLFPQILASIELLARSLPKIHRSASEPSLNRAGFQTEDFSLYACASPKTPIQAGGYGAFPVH",
  "assay": "LanthaScreen biochemical kinase assay",
  "data": [
    {"smiles": "Cc1nc(Nc2ccc(NC(=O)Nc3ccc(F)c(Cl)c3)cc2)cc(N2CCOCC2)n1", "note": "[SI-008, 1-(3-Chloro-4-fluorophenyl)-3-(4-(2-methyl-6-morpholinopyrimidin-4-ylamino)phenyl)urea]", "values": [
      {"measurement": "IC50", "value": 685, "unit": "nM"}
    ]},
    {"smiles": "Cc1nc(Nc2cccc(NC(=O)Nc3cc(F)ccc3C)c2)cc(N2CCOCC2)n1", "note": "[SI-046, 1-(5-Fluoro-2-methylphenyl)-3-(3-(2-methyl-6-morpholinopyrimidin-4-ylamino)phenyl)urea]", "values": [
      {"measurement": "IC50", "value": 298, "unit": "nM"}
    ]}
  ]
}
